The values below come from patent US11597704B2, “2,4-diaminoquinazoline derivatives and medical uses thereof” (Janssen Sciences Ireland Unlimited Company, priority 2018, dated 2023).

For one assay, the target named is T1, human TLR7 (Homo sapiens, UniProt Q9NYK1).
T1 construct: expressed in transfected cells; host or cells: HEK293
T1 sequence (Q9NYK1 27-1049): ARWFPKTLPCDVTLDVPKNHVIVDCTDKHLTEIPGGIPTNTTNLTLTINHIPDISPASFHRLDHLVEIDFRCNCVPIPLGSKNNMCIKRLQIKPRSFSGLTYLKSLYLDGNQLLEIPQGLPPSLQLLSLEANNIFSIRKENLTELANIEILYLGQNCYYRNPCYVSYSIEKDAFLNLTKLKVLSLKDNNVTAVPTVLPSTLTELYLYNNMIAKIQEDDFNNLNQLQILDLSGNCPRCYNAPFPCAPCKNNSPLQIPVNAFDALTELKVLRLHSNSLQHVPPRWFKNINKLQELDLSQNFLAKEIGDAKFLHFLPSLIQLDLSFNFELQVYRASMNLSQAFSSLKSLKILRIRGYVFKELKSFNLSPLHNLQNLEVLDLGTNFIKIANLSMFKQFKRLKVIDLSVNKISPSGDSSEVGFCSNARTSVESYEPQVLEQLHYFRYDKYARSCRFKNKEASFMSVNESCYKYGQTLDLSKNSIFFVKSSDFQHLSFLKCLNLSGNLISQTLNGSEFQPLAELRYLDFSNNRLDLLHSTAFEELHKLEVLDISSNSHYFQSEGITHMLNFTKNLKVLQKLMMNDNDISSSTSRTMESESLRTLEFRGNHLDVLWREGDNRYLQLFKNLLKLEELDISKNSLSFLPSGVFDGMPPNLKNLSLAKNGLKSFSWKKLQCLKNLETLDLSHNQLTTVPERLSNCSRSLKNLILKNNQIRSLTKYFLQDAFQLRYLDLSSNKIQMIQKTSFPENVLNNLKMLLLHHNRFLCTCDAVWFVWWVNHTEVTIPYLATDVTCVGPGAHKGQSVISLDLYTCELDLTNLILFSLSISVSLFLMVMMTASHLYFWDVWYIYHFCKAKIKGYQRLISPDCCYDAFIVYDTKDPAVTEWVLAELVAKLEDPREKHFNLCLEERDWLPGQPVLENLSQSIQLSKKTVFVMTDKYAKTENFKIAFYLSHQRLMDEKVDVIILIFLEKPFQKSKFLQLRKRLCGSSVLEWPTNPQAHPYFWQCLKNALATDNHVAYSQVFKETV
Description: TLR7 NFκB-luc cellular reporter assay in transiently transfected HEK293 cells. It is filed as cell-based. The following applies: lowest effective concentration; HEK293 cells transfected with wild type TLR7 and NFκB-luc reporter, 6 h incubation. As to the method: (§1) The ability of compounds to activate human TLR7 and/or TLR8 was assessed in a cellular reporter assay using HEK293 cells transiently transfected with a TLR7 or TLR8 expression vector and NFκB-luc reporter construct. In one instance, the TLR expression construct expresses the respective wild type sequence or a mutant sequence comprising a deletion in the second leucine-rich repeat of the TLR.
(§2) HEK293 cells were grown in culture medium (DMEM supplemented with 10% FCS and 2 mM Glutamine). For transfection of cells in 10 cm dishes, cells were detached with Trypsin-EDTA, transfected with a mix of CMV-TLR7 or TLR8 plasmid (750 ng), NFκB-luc plasmid (375 ng) and a transfection reagent and incubated 24 h at 37° C. in a humidified 5% C02 atmosphere. Transfected cells were then detached with Trypsin-EDTA, washed in PBS and re-suspended in medium to a density of 1.67×10^5 cells/mL. Thirty microliters of cells were then dispensed into each well in 384-well plates, where 10 μL of compound in 4% DMSO was already present. Following 6 h incubation at 37° C., 5% CO2, the luciferase activity was determined by adding 15 μl of STEADY LITE PLUS substrate (PERKIN ELMER) to each well and readout performed on a VIEWLUX ULTRAHTS microplate imager (PERKIN ELMER). Dose response curves were generated from measurements performed in quadruplicates. Lowest effective concentrations (LEC) values, defined as the concentration that induces an effect which is at least two-fold above the standard deviation of the assay, were determined for each compound.
A general note: A reporter such as luciferase makes a cellular process visible.

In the next assay the target is T2, human TLR8 (Homo sapiens, UniProt Q9NR97).
T2 construct: expressed in transfected cells; host or cells: HEK293
T2 sequence (Q9NR97 27-1041): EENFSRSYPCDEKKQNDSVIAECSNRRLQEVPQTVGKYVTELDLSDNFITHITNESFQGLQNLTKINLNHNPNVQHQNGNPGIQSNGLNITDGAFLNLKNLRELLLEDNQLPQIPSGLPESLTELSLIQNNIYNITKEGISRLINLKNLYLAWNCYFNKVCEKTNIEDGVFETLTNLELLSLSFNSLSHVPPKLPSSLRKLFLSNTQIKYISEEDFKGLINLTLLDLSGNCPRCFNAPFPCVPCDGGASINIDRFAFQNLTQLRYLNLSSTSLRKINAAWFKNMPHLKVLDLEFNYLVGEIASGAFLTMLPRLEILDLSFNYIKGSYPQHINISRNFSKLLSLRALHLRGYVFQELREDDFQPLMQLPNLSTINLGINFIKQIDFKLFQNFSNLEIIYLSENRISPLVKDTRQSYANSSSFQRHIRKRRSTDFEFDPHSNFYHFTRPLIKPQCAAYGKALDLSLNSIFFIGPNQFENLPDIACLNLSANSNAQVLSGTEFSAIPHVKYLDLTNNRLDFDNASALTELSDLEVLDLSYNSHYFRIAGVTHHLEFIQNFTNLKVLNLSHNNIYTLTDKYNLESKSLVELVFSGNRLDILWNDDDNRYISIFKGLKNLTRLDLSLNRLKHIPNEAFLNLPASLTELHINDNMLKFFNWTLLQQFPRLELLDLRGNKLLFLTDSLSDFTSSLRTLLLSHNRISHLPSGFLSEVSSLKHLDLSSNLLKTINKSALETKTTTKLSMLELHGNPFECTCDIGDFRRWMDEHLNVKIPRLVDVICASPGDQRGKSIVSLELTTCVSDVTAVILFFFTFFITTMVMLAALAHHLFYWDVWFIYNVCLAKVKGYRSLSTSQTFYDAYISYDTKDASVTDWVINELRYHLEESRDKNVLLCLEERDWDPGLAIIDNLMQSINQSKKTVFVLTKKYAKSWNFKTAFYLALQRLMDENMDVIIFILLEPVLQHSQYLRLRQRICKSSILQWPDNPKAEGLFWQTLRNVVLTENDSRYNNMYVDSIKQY
The assay is described as follows: TLR8 NFκB-luc cellular reporter assay in transiently transfected HEK293 cells. It is filed as cell-based. The following applies: lowest effective concentration; HEK293 cells transfected with wild type TLR8 and NFκB-luc reporter, 6 h incubation. Here is the method:
as §1, §2

`CCCC[C@H](CO)Nc1nc(N)nc2c(F)cccc12` [Compound 9, (R)-2-((2-amino-8-fluoroquinazolin-4-yl)amino)hexan-1-ol] showed a hTLR7-wt (LEC) at human TLR7 of more than 25 µM. At human TLR8, this compound showed a hTLR8-wt (LEC) of 0.11 µM.

Turning to `CCCC[C@H](CO)Nc1nc(N)nc2cc(F)cc(F)c12` [Compound 23, (R)-2-((2-amino-5,7-difluoroquinazolin-4-yl)amino)hexan-1-ol], the hTLR7-wt (LEC) at human TLR7 was determined as 6.24 µM. In addition, the hTLR8-wt (LEC) on human TLR8 was 0.04 µM.

The compound `CCCC[C@H](CO)Nc1nc(N)nc2cccc(F)c12` [Compound 2, (R)-2-((2-amino-5-fluoroquinazolin-4-yl)amino)hexan-1-ol] gave a hTLR7-wt (LEC) at human TLR7 of 27.7 µM. For the same compound, at human TLR8, the hTLR8-wt (LEC) was 0.07 µM.

Take `CCCC[C@H](CO)Nc1nc(N)nc2c(C)cccc12` [Compound 7, (R)-2-((2-amino-8-methylquinazolin-4-yl)amino)hexan-1-ol]: the hTLR7-wt (LEC) on human TLR7 is more than 25 µM. This compound gave a hTLR8-wt (LEC) on human TLR8 of 0.46 µM.

`CCCC[C@H](CO)Nc1nc(N)nc2cccc(C)c12` [Compound 16, (R)-2-((2-amino-5-methylquinazolin-4-yl)amino)hexan-1-ol] had a hTLR7-wt (LEC) on human TLR7 of more than 100 µM. On human TLR8, this compound showed a hTLR8-wt (LEC) of 0.19 µM.

On human TLR7, `CCC[C@H](CO)Nc1nc(N)nc2c(F)cccc12` [Compound 10, (R)-2-((2-amino-8-fluoroquinazolin-4-yl)amino)pentan-1-ol] registered a hTLR7-wt (LEC) of more than 25 µM. The compound further yielded a hTLR8-wt (LEC) at human TLR8 of 3.27 µM.

In turn, `CCCC[C@H](CO)Nc1nc(N)nc2cccc(Cl)c12` [Compound 15, (R)-2-((2-amino-5-chloroquinazolin-4-yl)amino)hexan-1-ol] came in with a hTLR7-wt (LEC) on human TLR7 of more than 100 µM. In addition, the hTLR8-wt (LEC) on human TLR8 came out at 0.07 µM.

For the compound `CCCC[C@H](CO)Nc1nc(N)nc2c(C)ccc(F)c12` [Compound 26, (R)-2-((2-amino-5-fluoro-8-methylquinazolin-4-yl)amino)hexan-1-ol], on human TLR7, the hTLR7-wt (LEC) was more than 100 µM. On human TLR8, this compound displayed a hTLR8-wt (LEC) of 0.57 µM.

The compound `CSCC[C@H](CO)Nc1nc(N)nc2cccc(F)c12` [Compound 20, (R)-2-((2-amino-5-fluoroquinazolin-4-yl)amino)-4-(methylthio)butan-1-ol] showed a hTLR7-wt (LEC) on human TLR7 of more than 50 µM. The compound further showed a hTLR8-wt (LEC) on human TLR8 of 0.7 µM.

For `CCCC[C@H](CO)Nc1nc(N)nc2cc(C(=O)OC)ccc12` [Compound 18, Methyl (R)-2-amino-4-((1-hydroxyhexan-2-yl)amino)quinazoline-7-carboxylate], the hTLR7-wt (LEC) on human TLR7 is more than 100 µM. The hTLR8-wt (LEC) on human TLR8 worked out at 0.57 µM.

`CCCC[C@H](CO)Nc1nc(N)nc2c(Cl)cccc12` [Compound 8, (R)-2-((2-amino-8-chloroquinazolin-4-yl)amino)hexan-1-ol] came in with a hTLR7-wt (LEC) on human TLR7 of more than 25 µM. The compound also gave a hTLR8-wt (LEC) on human TLR8 of 2.72 µM.

`CCCC[C@H](CO)Nc1nc(N)nc2cc(-c3nnco3)ccc12` [Compound 5, (R)-2-((2-amino-7-(1,3,4-oxadiazol-2-yl)quinazolin-4-yl)amino)hexan-1-ol] registered a hTLR7-wt (LEC) on human TLR7 of more than 25 µM. Moreover, the hTLR8-wt (LEC) on human TLR8 came to 0.38 µM.

For the compound `CCCC[C@H](CO)Nc1nc(N)nc2cccc(C(F)(F)F)c12` [Compound 3, (R)-2-((2-amino-5-(trifluoromethyl)quinazolin-4-yl)amino)hexan-1-ol], the hTLR7-wt (LEC) at human TLR7 is more than 100 µM. For the same compound, the hTLR8-wt (LEC) at human TLR8 came out at 0.66 µM.

In turn, `CCC[C@H](CO)Nc1nc(N)nc2c(C)cccc12` [Compound 6, (R)-2-((2-amino-8-methylquinazolin-4-yl)amino)pentan-1-ol] gave a hTLR7-wt (LEC) at human TLR7 of more than 25 µM. Besides, the hTLR8-wt (LEC) on human TLR8 was found to be 5.75 µM.

Consider `CCCC[C@H](CO)Nc1nc(N)nc2c(OC)cccc12` [Compound 17, (R)-2-((2-amino-8-methoxyquinazolin-4-yl)amino)hexan-1-ol], for which the hTLR7-wt (LEC) on human TLR7 was more than 50 µM. The same compound showed a hTLR8-wt (LEC) on human TLR8 of 3.74 µM.

For the compound `CCCC[C@H](CO)Nc1nc(N)nc2cccc(C3CC3)c12` [Compound 1, (R)-2-((2-amino-5-cyclopropylquinazolin-4-yl)amino)hexan-1-ol], the hTLR7-wt (LEC) on human TLR7 is more than 100 µM. The hTLR8-wt (LEC) on human TLR8 amounted to 0.35 µM.

As for `CCCC[C@H](CO)Nc1nc(N)nc2cc(F)ccc12` [Compound 13, (R)-2-((2-amino-7-fluoroquinazolin-4-yl)amino)hexan-1-ol], the hTLR7-wt (LEC) on human TLR7 was 29.4 µM. On human TLR8, this compound returned a hTLR8-wt (LEC) of 0.04 µM.

The compound `CCCC[C@H](COC(=O)C(C)C)Nc1nc(N)nc2c(C)cccc12` [Compound 11, (R)-2-((2-amino-8-methylquinazolin-4-yl)amino)hexyl isobutyrate] showed a hTLR7-wt (LEC) at human TLR7 of more than 25 µM. For the same compound, the hTLR8-wt (LEC) on human TLR8 was determined as 0.64 µM.

`CCCC[C@H](CO)Nc1nc(N)nc2cc(C(F)(F)F)ccc12` [Compound 24, (R)-2-((2-amino-7-(trifluoromethyl)quinazolin-4-yl)amino)hexan-1-ol] yielded a hTLR7-wt (LEC) at human TLR7 of 3.36 µM. In addition, on human TLR8, the hTLR8-wt (LEC) turned out to be 0.35 µM.

Turning to `CCCC[C@H](CO)Nc1nc(N)nc2cc(C(=O)N(C)C)ccc12` [Compound 25, (R)-2-amino-4-((1-hydroxyhexan-2-yl)amino)-N,N-dimethylquinazoline-7-carboxamide], the hTLR7-wt (LEC) at human TLR7 was more than 100 µM. The same compound displayed a hTLR8-wt (LEC) on human TLR8 of 3.89 µM.

`CCCC[C@H](CO)Nc1nc(N)nc2cccc(C(=O)NC)c12` [Compound 22, (R)-2-amino-4-((1-hydroxyhexan-2-yl)amino)-N-methylquinazoline-5-carboxamide] registered a hTLR7-wt (LEC) on human TLR7 of 2.17 µM. The compound further returned a hTLR8-wt (LEC) on human TLR8 of 1.81 µM.

On to `CCCC[C@H](CO)Nc1nc(N)nc2cccc(OC)c12` [Compound 12, (R)-2-((2-amino-5-methoxyquinazolin-4-yl)amino)hexan-1-ol], for which the hTLR7-wt (LEC) on human TLR7 was found to be 11.3 µM. The hTLR8-wt (LEC) at human TLR8 was 0.39 µM.

The compound `CCCC[C@H](CO)Nc1nc(N)nc2cc(C#N)ccc12` [Compound 4, (R)-2-amino-4-((1-hydroxyhexan-2-yl)amino)quinazoline-7-carbonitrile] displayed a hTLR7-wt (LEC) on human TLR7 of more than 100 µM. For the same compound, the hTLR8-wt (LEC) at human TLR8 was 0.14 µM.
